{"source": "patent US20030055065A1", "about": "“Tricyclic amide and urea compounds useful for inhibition of G-protein function and for treatment of proliferative diseases” (priority 1993, published 2003)", "format_in_all_cases": "cell-based", "key": {"[1]": {"test_system": "Ras-CVLS processing in COS monkey kidney cells", "assay": "COS cell assay: Ras-CVLS processing (Western blot)", "conditions": "Primates, COS", "method_in_brief": "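COS cells electroporated with Ras-CVLS (farnesyl transferase substrate) cDNA, with drug-containing fresh medium added at 24 h and cells examined at 48 h. TCA-precipitated cellular protein was resolved by SDS gel and immunoblotted with anti-p21 Ras monoclonal and HRP anti-rat IgG to monitor Ras processing.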"}, "[2]": {"test_system": "Ras-CVLL processing in COS monkey kidney cells", "assay": "COS cell assay: Ras-CVLL processing (geranylgeranylation)", "conditions": "concentrations up to 20 μg/mL", "description": "(§1) 2. Cell-Based Assay: Transient expression of val^12-Ha-Ras-CVLS and val^12-Ha-Ras-CVLL in COS monkey kidney cells: Effect of farnesyl protein transferase inhibitors on Ras processing and on disordered cell growth induced by transforming Ras.\nCOS monkey kidney cells were transfected by electroporation with the plasmid pSV-SPORT (Gibco/BRL) containing a cDNA insert encoding either Ras-CVLS or Ras-CVLL, leading to transient overexpression of a Ras substrate for either farnesyl protein transferase or geranylgeranyl protein transferase I, respectively (see above). […]\nMembranes were blocked by incubation overnight at 4° C. in PBS containing 2.5% dried milk and 0.5% Tween-20 and then incubated with a Ras-specific monoclonal antibody, Y13-259 (Furth, M. E., et al., (1982), Monoclonal antibodies to the p21 products of the transforming gene of Harvey murine sarcome virus and of the cellular ras gene family, J. Virol. 43: 294-304), in PBS containing 1% fetal calf serum for one hour at room temperature. […] The presence of processed and unprocessed Ras-CVLS or Ras-CVLL was detected using a colorimetric peroxidase reagent (4-chloro-1-naphthol) as described by the manufacturer (Bio-Rad)."}, "[3]": {"test_system": "COS monkey kidney cells expressing val12-Ha-Ras-CVLS", "assay": "COS cell assay: disordered cell growth / morphological changes induced by Ras-CVLS", "description": "as §1\n(§2) COS monkey kidney cells were transfected by electroporation with the plasmid pSV-SPORT (Gibco/BRL) containing a cDNA insert encoding either Ras-CVLS or Ras-CVLL, leading to transient overexpression of a Ras substrate for either farnesyl protein transferase or geranylgeranyl protein transferase I, respectively (see above).\n(§3) Following electroporation, cells were plated into 6-well tissue culture dishes containing 1.5 ml of Dulbecco's-modified Eagle's media (GIBCO, Inc.) supplemented with 10% fetal calf serum and the appropriate farnesyl protein transferase inhibitors. After 24 hours, media was removed and fresh media containing the appropriate drugs was re-added.\n(§4) 48 hours after electroporation cells were examined under the microscope to monitor disordered cell growth induced by transforming Ras. Cells expressing transforming Ras become more rounded and refractile and overgrow the monolayer, reminiscent of the transformed phenotype. […]"}, "[4]": {"test_system": "COS monkey kidney cells expressing val12-Ha-Ras-CVLL", "assay": "COS cell assay: disordered cell growth / morphological changes induced by Ras-CVLL", "conditions": "20 μg/mL", "description": "as §1, §2, §3, §4"}, "[5]": {"test_system": "T24-BAG4 human bladder carcinoma cells expressing an activated H-ras gene", "assay": "Cell Mat Assay: tumor cell colony inhibition (tIC50)", "conditions": "Homo sapiens, inhibition of tumor cell growth", "method_in_brief": "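Serial compound dilutions added 24 h after planting T24-BAG4 cells onto a mat of normal cells, then 14 d colony growth; monolayers glutaraldehyde-fixed and tumor cells X-Gal stained. tIC50 and mIC50 from microscope counts of colonies, cells per colony and mat cell density.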"}}, "note": "“And” between values parts separate entries of the source, which are not always exact repeats. Equal values may be shown once. Read-outs that look alike come from different tables or passages of the source.", "data": [{"smiles": "O=C(Cc1ccncc1)N1CCC(=C2c3ccc(Cl)cc3CCc3cccnc32)CC1", "note": "[Example 1, 1-(4-pyridylacetyl)-4-(8-chloro-5,6-dihydro-11H-benzo[5,6]cyclohepta[1,2-b]pyridin-11-ylidene)piperidine]", "values": [{"measurement": "IC50", "setting": "[1]; COS cells, read-out: Inhibition of Ras Processing IC50", "value": 1, "unit": "µM"}, {"measurement": "IC50", "setting": "[1]; Ras-transfected COS cells, read-out: Ras-CVLS processing IC50", "value": "1 µM and 0.44 µg/mL"}, {"measurement": "geranylgeranylation of Ras-CVLL", "setting": "[2]", "value": "did not block"}, {"measurement": "morphological changes induced by Ras-CVLS", "setting": "[3]; at 0.2 or 0.5 μg/mL", "value": "little effect"}, {"measurement": "morphological changes induced by Ras-CVLS", "setting": "[3]; concentration range of 2 to 20 μg/mL", "value": "inhibited the morphological changes induced by Ras-CVLS in a dose-dependent manner"}, {"measurement": "morphological changes induced by Ras-CVLL", "setting": "[4]", "value": "did not prevent the morphological changes"}, {"measurement": "IC50", "setting": "[5]", "value": 3.1, "unit": "µM"}]}]}
